Results on 36 compounds are retold here after patent US11116760B2 (Gilead Sciences, Inc., priority 2018, dated 2021).

α4β7 integrin, sequence (P13612 34-1032): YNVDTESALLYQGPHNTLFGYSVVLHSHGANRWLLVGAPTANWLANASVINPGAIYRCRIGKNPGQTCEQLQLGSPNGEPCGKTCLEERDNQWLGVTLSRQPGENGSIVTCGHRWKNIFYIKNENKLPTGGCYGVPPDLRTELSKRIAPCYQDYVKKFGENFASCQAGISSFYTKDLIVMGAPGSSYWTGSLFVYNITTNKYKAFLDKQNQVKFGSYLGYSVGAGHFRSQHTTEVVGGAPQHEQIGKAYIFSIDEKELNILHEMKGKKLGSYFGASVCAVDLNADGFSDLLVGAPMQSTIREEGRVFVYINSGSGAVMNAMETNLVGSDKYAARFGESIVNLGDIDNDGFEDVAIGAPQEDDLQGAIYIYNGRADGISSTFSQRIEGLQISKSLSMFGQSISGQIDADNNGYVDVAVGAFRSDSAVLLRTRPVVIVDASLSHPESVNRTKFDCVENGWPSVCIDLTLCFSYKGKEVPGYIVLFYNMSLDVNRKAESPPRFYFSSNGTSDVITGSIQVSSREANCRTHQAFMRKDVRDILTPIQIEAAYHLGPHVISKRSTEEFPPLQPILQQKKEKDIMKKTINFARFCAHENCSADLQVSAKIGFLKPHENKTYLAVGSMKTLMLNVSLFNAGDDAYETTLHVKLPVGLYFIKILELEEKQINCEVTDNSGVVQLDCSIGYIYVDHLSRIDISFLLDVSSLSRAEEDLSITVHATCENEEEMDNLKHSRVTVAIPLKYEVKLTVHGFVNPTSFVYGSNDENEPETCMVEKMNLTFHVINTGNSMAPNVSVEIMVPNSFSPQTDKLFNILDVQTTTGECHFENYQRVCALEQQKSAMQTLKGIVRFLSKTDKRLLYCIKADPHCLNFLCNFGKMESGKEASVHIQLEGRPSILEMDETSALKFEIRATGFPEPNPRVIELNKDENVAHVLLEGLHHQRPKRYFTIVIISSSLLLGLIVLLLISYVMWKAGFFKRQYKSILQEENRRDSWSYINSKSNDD
α4β7 integrin, sequence (P26010 20-798): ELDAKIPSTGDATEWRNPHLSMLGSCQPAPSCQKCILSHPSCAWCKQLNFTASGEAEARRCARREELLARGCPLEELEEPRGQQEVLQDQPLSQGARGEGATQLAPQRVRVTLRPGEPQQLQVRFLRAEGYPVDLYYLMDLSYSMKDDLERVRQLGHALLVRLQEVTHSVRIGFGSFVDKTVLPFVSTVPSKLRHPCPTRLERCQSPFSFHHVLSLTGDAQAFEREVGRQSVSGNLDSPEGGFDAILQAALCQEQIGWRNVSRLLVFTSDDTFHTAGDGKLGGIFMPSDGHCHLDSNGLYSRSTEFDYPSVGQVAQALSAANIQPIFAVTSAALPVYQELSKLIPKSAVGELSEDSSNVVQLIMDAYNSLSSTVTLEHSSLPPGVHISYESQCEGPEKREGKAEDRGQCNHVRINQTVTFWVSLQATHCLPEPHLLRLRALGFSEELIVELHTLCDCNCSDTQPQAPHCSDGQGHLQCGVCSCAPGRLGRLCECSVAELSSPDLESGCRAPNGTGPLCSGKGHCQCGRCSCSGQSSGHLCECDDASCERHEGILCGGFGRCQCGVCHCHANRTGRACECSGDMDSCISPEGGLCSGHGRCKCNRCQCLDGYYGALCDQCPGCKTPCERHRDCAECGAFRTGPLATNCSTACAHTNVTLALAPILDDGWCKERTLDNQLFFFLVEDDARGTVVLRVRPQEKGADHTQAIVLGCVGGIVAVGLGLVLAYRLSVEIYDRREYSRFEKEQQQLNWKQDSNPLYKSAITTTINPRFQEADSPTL

The first experiment addresses α4β7 integrin (Homo sapiens (Human), UniProt P13612+P26010). The experiment can be described thus: α4β7 Integrin Cell Capture Assay. The settings on record: RPMI8866 cells captured on MadCAM-1 extracellular domain-coated plate. The experiment is classed as cell-based.
By EC50 is commonly meant the concentration at which the effect is half-maximal. The low end stands for an effect from little substance, the high end for a need for much substance. Compound `Cc1cc(N2CCOC[C@@H]2C(F)(F)F)cc(F)c1C(=O)N[C@@H](Cc1ccc(-c2cc(C(F)(F)F)c(C)n(C)c2=O)c2ncccc12)C(=O)O` [Example 448] yielded an EC50 of 0.307 nM.

Compound `Cc1cc(C(F)(F)F)c(-c2ccc(C[C@H](NC(=O)c3c(F)cc(N4C[C@H]5C[C@H]5[C@@H]4C(F)(F)F)cc3F)C(=O)O)c3cccnc23)c(=O)n1C` [Example 483] had a concentration for a half-maximal effect (EC50) of 0.544 nM.

For the compound `Cc1cc(C(F)(F)F)c(-c2ccc(C[C@H](NC(=O)c3c(F)cc(N4CCO[C@@H](C(F)(F)F)C4)cc3F)C(=O)O)c3cccnc23)c(=O)n1C` [Example 447], the response was half-maximal at 0.271 nM (EC50).

`Cc1cc(N2CCOC[C@@H]2C(F)(F)F)cc(F)c1C(=O)N[C@@H](Cc1ccc(-n2c(=O)c3ccncc3n(C)c2=O)c2ncccc12)C(=O)O` (atropisomer, axis not shown) [Example 408, (S)-2-(2-fluoro-6-methyl-4-((R)-3-(trifluoromethyl)morpholino)benzamido)-3-(8-(1-methyl-2,4-dioxo-1,4-dihydropyrido[3,4-d]pyrimidin-3(2H)-yl)quinolin-5-yl)propanoic acid] gave an EC50 of 0.049 nM.

Regarding `Cc1cc(N2CCOC[C@@H]2C(F)(F)F)cc(F)c1C(=O)N[C@@H](Cc1ccc(-n2c(=O)c3ccncc3n(C)c2=O)c2ncccc12)C(=O)O` (single isomer, unassigned) [Example 407], the EC50 was determined as 0.162 nM.

`Cc1cc(N2CCOC[C@@H]2C(F)(F)F)cc(F)c1C(=O)N[C@@H](Cc1ccc(-n2c(=O)c3c(cnn3C)n(C)c2=O)c2ncccc12)C(=O)O` [Example 413] yielded an EC50 of 0.529 nM.

Compound `Cc1cc(C(F)(F)F)c(-c2ccc(C[C@H](NC(=O)c3c(F)cc(N4CCCOCC4)cc3F)C(=O)O)c3cccnc23)c(=O)n1C` [Example 441] displayed a 50% effective concentration (EC50) of 0.412 nM.

Take `Cc1cc(N2CCOC[C@@H]2C(F)(F)F)cc(F)c1C(=O)N[C@@H](Cc1cc(F)c(-c2cc3cnccc3n(C)c2=O)c2ncccc12)C(=O)O` [Example 464]: a half-maximal effect (EC50) was put at 0.13 nM.

As for `Cc1cc(N2CCCC[C@@H]2C(F)(F)F)cc(F)c1C(=O)N[C@@H](Cc1ccc(-c2nc(C)c(C)n(C)c2=O)c2ncccc12)C(=O)O` [Example 453], a half-maximal effect (EC50) was put at 0.677 nM.

The experiment is the same for the next values; noted with them: Table 1; capture of α4β7 expressing RPM18866 cells on MadCAM-1 extracellular domain-coated plate.
In turn, `CC[C@@H](Nc1cc(F)c(C(=O)N[C@@H](Cc2ccc(-c3c(C)c4cc(F)ccc4n(C)c3=O)c3ncccc23)C(=O)O)c(F)c1)C(F)(F)F` (atropisomer, axis not shown) [Example 109, (S)-2-(2,6-difluoro-4-(((R)-1,1,1-trifluorobutan-2-yl)amino)benzamido)-3-(6-fluoro-1,4-dimethyl-2-oxo-1,2-dihydro-[3,8′-biquinolin]-5′-yl)propanoic acid] displayed an EC50 of 0.3 nM.

With `Cc1cc(C)n(C)c(=O)c1-c1ccc(C[C@H](NC(=O)c2c(F)cc(N3CCOC[C@@H]3C(F)(F)F)cc2F)C(=O)O)c2cccnc12` [Example 95, (S)-2-(2,6-difluoro-4-((R)-3-(trifluoromethyl)morpholino)benzamido)-3-(8-(1,4,6-trimethyl-2-oxo-1,2-dihydropyridin-3-yl)quinolin-5-yl)propanoic acid], the EC50 is 0.3 nM.

In turn, `N#Cc1ccc(-c2ccc(C[C@H](NC(=O)c3c(F)cc(CS(=O)(=O)c4ccccc4)cc3F)C(=O)O)c3cccnc23)c(Cl)c1` [Example 49, (S)-3-(8-(2-chloro-4-cyanophenyl)quinolin-5-yl)-2-(2,6-difluoro-4-((phenylsulfonyl)methyl)benzamido)propanoic acid] registered an EC50 of 33.7 nM.

In turn, `CCOCc1cc(OC)c(-c2ccc(C[C@H](NC(=O)c3c(F)cccc3F)C(=O)O)c3cc(C(F)(F)F)cnc23)c(OC)c1` [Example 37, (S)-2-(2,6-difluorobenzamido)-3-(8-(4-(ethoxymethyl)-2,6-dimethoxyphenyl)-3-(trifluoromethyl)quinolin-5-yl)propanoic acid] came in with an EC50 of 69.6 nM.

Compound `CC[C@@H](Nc1cc(F)c(C(=O)N[C@@H](Cc2ccc(-c3c(OC)c4ccccc4n(C)c3=O)c3ncccc23)C(=O)O)c(F)c1)C(F)(F)F` [Example 122, (S)-2-(2,6-difluoro-4-(((R)-1,1,1-trifluorobutan-2-yl)amino)benzamido)-3-(4-methoxy-1-methyl-2-oxo-1,2-dihydro-[3,8′-biquinolin]-5′-yl)propanoic acid] displayed an EC50 of 0.2 nM.

Consider `N#Cc1ccc(-c2ccc(C[C@H](NC(=O)c3c(F)cc(N4CCS(=O)(=O)CC4)cc3F)C(=O)O)c3cccnc23)c(Cl)c1` [Example 80, (S)-3-(8-(2-chloro-4-cyanophenyl)quinolin-5-yl)-2-(4-(1,1-dioxidothiomorpholino)-2,6-difluorobenzamido)propanoic acid], for which a half-maximal effect (EC50) was put at 18.1 nM.

As for `Cc1cc(C(F)(F)F)c(-c2ccc(C[C@H](NC(=O)c3c(F)cc(N4CCOC[C@@H]4C(F)(F)F)cc3F)C(=O)O)c3cccnc23)c(=O)n1C` [Example 96, (S)-2-(2,6-difluoro-4-((R)-3-(trifluoromethyl)morpholino)benzamido)-3-(8-(1,6-dimethyl-2-oxo-4-(trifluoromethyl)-1,2-dihydropyridin-3-yl)quinolin-5-yl)propanoic acid], the EC50 was found to be 0.2 nM.

As for `Cn1c(=O)c(-c2ccc(C[C@H](NC(=O)c3c(F)cccc3F)C(=O)O)c3cccnc23)cc2ccccc21` [Example 14, (S)-2-(2,6-difluorobenzamido)-3-(1-methyl-2-oxo-1,2-dihydro-[3,8′-biquinolin]-5′-yl)propanoic acid], a half-maximal effect (EC50) was put at 3.7 nM.

Compound `N#CCc1ccc(-c2ccc(C[C@H](NC(=O)c3c(F)cc(NS(=O)(=O)c4ccc(-c5ccnc(F)c5)cc4)cc3F)C(=O)O)c3cccnc23)c(Cl)c1` [Example 53, (S)-3-(8-(2-chloro-4-(cyanomethyl)phenyl)quinolin-5-yl)-2-(2,6-difluoro-4-((4-(2-fluoropyridin-4-yl)phenyl)sulfonamido)benzamido)propanoic acid] registered an EC50 of 3 nM.

In turn, `O=C(N[C@@H](Cc1ccc(-c2cccc3c2OCCC3)c2ncccc12)C(=O)O)c1c(F)cc(NS(=O)(=O)c2ccc(-c3ccnc(F)c3)cc2)cc1F` [Example 62, (S)-3-(8-(chroman-8-yl)quinolin-5-yl)-2-(2,6-difluoro-4-((4-(2-fluoropyridin-4-yl)phenyl)sulfonamido)benzamido)propanoic acid] gave an EC50 of 1.8 nM.

Turning to `CCCNc1cc(F)c(C(=O)N[C@@H](Cc2ccc(-c3c(C(F)(F)F)cc(C)n(C)c3=O)c3ncccc23)C(=O)O)c(F)c1` [Example 133, (S)-2-(2,6-difluoro-4-(propylamino)benzamido)-3-(8-(1,6-dimethyl-2-oxo-4-(trifluoromethyl)-1,2-dihydropyridin-3-yl)quinolin-5-yl)propanoic acid], the EC50 is 3.2 nM.

Turning to `COc1cc(C)nc(-c2ccc(C[C@H](NC(=O)c3c(F)cc(N4CCOC[C@@H]4C(F)(F)F)cc3F)C(=O)O)c3cccnc23)n1` [Example 99, (S)-2-(2,6-difluoro-4-((R)-3-(trifluoromethyl)morpholino)benzamido)-3-(8-(4-methoxy-6-methylpyrimidin-2-yl)quinolin-5-yl)propanoic acid], the midpoint of the response, the EC50, lay at 11.2 nM.

As for `COc1cccc(F)c1C(=O)N[C@@H](Cc1ccc(-c2ccc(C#N)cc2Cl)c2ncccc12)C(=O)O` [Example 23, (S)-3-(8-(2-chloro-4-cyanophenyl)quinolin-5-yl)-2-(2-fluoro-6-methoxybenzamido)propanoic acid], the EC50 stood at 46.7 nM.

Staying with this experiment, now noted: Table 2; capture of α4β7 expressing RPM18866 cells on MadCAM-1 extracellular domain-coated plate.
Take `Cc1c(-c2ccc(C[C@H](NC(=O)c3c(F)cc(N4CCS(=O)(=O)[C@H](C)C4)cc3F)C(=O)O)c3cccnc23)c(=O)n(C)c(=O)n1C` [Example 237]: the EC50 was 2.6 nM.

Compound `CN1CCc2nc(-c3ccc(C[C@H](NC(=O)c4c(F)cc(N5CCOC[C@@H]5C(F)(F)F)cc4F)C(=O)O)c4cccnc34)ncc2C1` [Example 312] returned an EC50 of 12.5 nM.

In the case of `CC[C@@H](Nc1cc(F)c(C(=O)N[C@@H](Cc2ccc(-c3nccc(C)c3Cl)c3ncccc23)C(=O)O)c(F)c1)C(F)(F)F` [Example 325], the response was half-maximal at 18.8 nM (EC50).

Turning to `COc1cc(C)n(C)c(=O)c1-c1ccc(C[C@H](NC(=O)c2c(F)cc(N3CCCC[C@@H]3C(F)(F)F)cc2F)C(=O)O)c2cccnc12` [Example 190], the EC50 stood at 1.2 nM.

The compound `N#Cc1ccc(-c2ccc(C[C@H](NC(=O)c3c(Cl)cc4cc[nH]c4c3Cl)C(=O)O)c3cccnc23)c(Cl)c1` [Example 317] came in with an EC50 of 13.8 nM.

`CCCN(c1cc(F)c(C(=O)N[C@@H](Cc2ccc(-c3c(C(F)(F)F)cc(C)n(C)c3=O)c3ncccc23)C(=O)O)c(F)c1)[C@H](CC)C(F)(F)F` [Example 339] registered an EC50 of 0.6 nM.

Regarding `CCOCc1cc(OC)c(-c2ccc(C[C@H](NC(=O)c3c(Cl)cc4[nH]c(Cc5ccccc5)cc4c3Cl)C(=O)O)c3cccnc23)c(OC)c1` [Example 297], the EC50 came out at 7.9 nM.

`Cc1cc(C(F)(F)F)c(-c2ccc(C[C@H](NC(=O)c3c(F)cc(N4CC(C)OCC4C(F)(F)F)cc3F)C(=O)O)c3cccnc23)c(=O)n1C` (stereo partly drawn) [Example 171] had an EC50 of 0.5 nM.

In turn, `Cc1ccnc(-c2ccc(C[C@H](NC(=O)c3c(F)cc(N4CCOC[C@@H]4C(F)(F)F)cc3F)C(=O)O)c3cccnc23)n1` [Example 263] returned an EC50 of 4 nM.

Turning to `Cc1cc(C(F)(F)F)c(-c2ccc(C[C@H](NC(=O)c3c(F)cc(N4CCOC[C@@H]4C(F)(F)F)cc3F)C(=O)O)c3ccc(C(F)(F)F)nc23)c(=O)n1C` [Example 231], the concentration for a half-maximal effect (EC50) came to 0.9 nM.

`Cc1ccnc(-c2ccc(C[C@H](NC(=O)c3c(F)cc(N4CCOC[C@@H]4C(F)(F)F)cc3F)C(=O)O)c3cccnc23)c1C(F)(F)F` [Example 223] had a concentration giving a half-maximal response (EC50) of 2.2 nM.

Compound `CC[C@@H](Nc1cc(F)c(C(=O)N[C@@H](Cc2ccc(-c3c(C(F)(F)F)cc(C)n(C)c3=O)c3nc(C(F)(F)F)ccc23)C(=O)O)c(F)c1)C(F)(F)F` [Example 269] returned a 50% effective concentration (EC50) of 4.4 nM.

As for `CC[C@@H](Nc1cc(F)c(C(=O)N[C@@H](Cc2ccc(-c3c(C)cc(C)n(C)c3=O)c3ncccc23)C(=O)O)c(F)c1)C(F)(F)F` [Example 345], the EC50 was 0.8 nM.

In turn, `Cc1c(-c2ccc(C[C@H](NC(=O)c3c(F)cc(N4CCS(=O)(=O)[C@@H](C)C4)cc3F)C(=O)O)c3cccnc23)c(=O)n(C)c(=O)n1C` [Example 226] registered an EC50 of 1.1 nM.
